Reference: the supplement of paper PMC10307832

Tests used:
Test in all cases: relative viability (nuclei count vs DMSO), 5 days (fraction); higher = more cells survive
[1] = compound: C1CCC(CC1)N(CCNCCC2=C3C(=C(C=C2)O)NC(=O)CO3)C(=O)CCNCCC4=CC(=C(C=C4)Cl)Cl [AZ505] + Nc1ncn([C@H]2C[C@H](O)[C@@H](CO)O2)c(=O)n1 [Decitabine] (partner 2 µM)
Outline: (§1)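 A single step with final 0.05% Triton X-100, 1% formaldehyde and 1 ug/ml Hoechst fixed the cells and stained nuclei 5 days after treatment. Lung cancer cell lines in 1536-well plates had been treated by pin tool the day after seeding with one drug alone or a fixed anchor-drug dose plus five library-drug doses (not always all listed) in √10 steps, and nuclei were counted on 4× images. Relative viability is the ratio of nuclei in treated wells to nuclei in vehicle wells, taken as the median of duplicate plates.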

[2] = compound: C1CCC(CC1)N(CCNCCC2=C3C(=C(C=C2)O)NC(=O)CO3)C(=O)CCNCCC4=CC(=C(C=C4)Cl)Cl [AZ505] + N=C(N)NC(=N)NCCc1ccccc1 [Phenformin] (partner 250 µM)
Outline: as §1

[3] = compound: C1CCC(CC1)N(CCNCCC2=C3C(=C(C=C2)O)NC(=O)CO3)C(=O)CCNCCC4=CC(=C(C=C4)Cl)Cl [AZ505] + CCNC(=O)c1noc(-c2cc(C(C)C)c(O)cc2O)c1-c1ccc(CN2CCOCC2)cc1 [Luminespib] (partner 0.01 µM)
Outline: as §1

[4] = compound: Cn1c(=O)n(-c2ccc(C(C)(C)C#N)cc2)c2c3cc(-c4cnc5ccccc5c4)ccc3ncc21 [Dactolisib] + C[C@]1(O)C[C@@H](c2nc(-c3ccc4ccc(-c5ccccc5)nc4c3)c3c(N)nccn32)C1 [Linsitinib] (partner 1 µM)
Outline: as §1

Row | Cell Line | relative viability ([1]; first compound 0.08 µM) | relative viability ([1]; first compound 0.253 µM) | relative viability ([1]; first compound 0.8 µM) | relative viability ([1]; first compound 2.53 µM) | relative viability ([1]; first compound 8 µM) | relative viability ([2]; first compound 0.08 µM) | relative viability ([2]; first compound 0.253 µM) | relative viability ([2]; first compound 0.8 µM) | relative viability ([2]; first compound 2.53 µM) | relative viability ([2]; first compound 8 µM) | relative viability ([3]; first compound 0.08 µM) | relative viability ([3]; first compound 0.253 µM) | relative viability ([3]; first compound 0.8 µM) | relative viability ([3]; first compound 2.53 µM) | relative viability ([3]; first compound 8 µM) | relative viability ([4]; first compound 0.002 µM) | relative viability ([4]; first compound 0.006325 µM) | relative viability ([4]; first compound 0.02 µM) | relative viability ([4]; first compound 0.06325 µM) | relative viability ([4]; first compound 0.2 µM)
1 | NCI-H2009 | 0.451 | 0.397 | 0.361 | 0.362 | 0.365 | 0.387 | 0.486 | 0.468 | 0.506 | 0.442 | 0.847 | 1.08 | 1.02 | 0.956 | 0.962 | 1.21 | 1.18 | 1.26 | 0.639 | 0.497
2 | HCC-15 | 0.566 | 0.627 | 0.587 | 0.705 | 0.678 | 0.411 | 0.476 | 0.474 | 0.415 | 0.446 | 0.264 | 0.323 | 0.346 | 0.312 | 0.302 | 0.976 | 0.864 | 0.873 | 0.441 | 0.367
3 | HCC-44 | 0.902 | 1.03 | 0.869 | 1.01 | 0.945 | 0.144 |  | 0.294 | 0.247 | 0.207 | 0.969 | 1.03 | 1.03 | 1.09 | 1.18 | 0.707 | 0.741 | 0.431 | 0.315 | 0.265
4 | COR-L23 | 0.378 | 0.449 | 0.381 | 0.458 | 0.443 | 0.446 | 0.463 | 0.383 | 0.442 | 0.441 | 0.54 | 0.771 | 0.611 | 0.613 | 0.706 | 1.01 | 0.8 | 0.448 | 0.17 | 0.139
5 | NCI-H727 | 0.829 | 0.693 | 0.812 | 0.849 | 0.987 | 0.651 | 0.461 | 0.525 |  | 0.613 | 0.319 | 0.336 | 0.328 |  | 0.421 | 0.271 | 0.317 | 0.266 | 0.213 | 0.37
6 | NCI-H2087 | 0.224 | 0.254 | 0.275 | 0.289 | 0.277 | 0.389 | 0.35 | 0.395 | 0.396 | 0.471 | 0.171 | 0.191 | 0.217 | 0.154 | 0.238 | 1.02 | 0.955 | 0.919 | 0.555 | 0.429
7 | BEN | 0.714 | 0.655 | 0.752 | 0.768 | 0.78 | 0.24 | 0.239 | 0.293 | 0.262 | 0.286 | 0.367 | 0.564 | 0.352 | 0.336 | 0.449 | 0.888 | 0.852 | 0.647 | 0.446 | 0.297
8 | LCLC-103H | 0.73 | 0.674 | 0.707 | 0.751 | 0.702 | 0.321 | 0.292 | 0.318 | 0.381 | 0.378 | 0.914 | 0.961 | 0.877 | 0.877 | 0.997 | 1.06 | 1.07 | 0.934 | 0.661 | 0.531
9 | EKVX |  | 0.35 | 0.318 | 0.349 | 0.349 | 0.21 | 0.245 | 0.238 | 0.198 | 0.251 | 0.873 | 0.615 | 0.831 | 0.846 | 0.91 | 0.896 | 0.908 | 0.962 | 0.682 | 0.327
10 | LXF-289 | 0.355 | 0.39 | 0.396 | 0.347 | 0.386 | 0.488 | 0.491 | 0.512 | 0.509 | 0.514 | 0.663 | 0.685 | 0.668 | 0.73 | 0.818 | 0.952 | 0.98 | 0.987 | 0.757 | 0.658
11 | ABC-1 | 1.07 |  | 1.11 | 0.938 | 1.04 | 0.196 | 0.211 | 0.242 | 0.252 | 0.219 | 0.865 | 0.472 | 0.524 | 0.839 | 0.717 | 0.948 | 0.614 | 0.694 | 0.363 | 0.326
12 | NCI-H650 | 0.311 | 0.343 | 0.301 | 0.316 | 0.288 | 0.443 | 0.389 | 0.468 | 0.509 | 0.457 | 0.726 | 0.777 | 0.835 | 0.774 | 0.709 | 1.26 | 0.752 | 0.697 | 0.576 | 0.415
13 | NCI-H2085 | 0.571 | 0.551 | 0.496 | 0.565 | 0.569 | 0.68 | 0.613 | 0.664 | 0.677 | 0.694 | 0.378 | 0.41 | 0.423 | 0.4 | 0.403 | 1.03 | 0.714 | 0.636 | 0.361 | 0.381
14 | NCI-H1793 | 0.588 | 0.506 | 0.454 | 0.544 | 0.549 | 0.248 | 0.338 | 0.454 |  | 0.368 | 0.199 | 0.173 | 0.179 |  | 0.167 | 0.813 | 0.559 | 0.321 | 0.183 | 0.158
15 | LC-2-ad | 0.797 | 0.835 | 0.776 | 0.776 | 0.841 | 0.561 | 0.538 | 0.572 | 0.64 | 0.579 | 0.927 | 0.881 | 1.06 | 0.868 | 1.16 | 0.722 |  | 0.751 | 0.488 | 0.565
16 | COR-L 105 | 0.375 | 0.653 | 0.591 | 0.637 | 0.729 | 0.451 | 0.454 | 0.547 | 0.473 | 0.583 | 0.739 | 0.707 | 0.765 | 0.831 | 0.905 | 1.17 | 0.653 | 0.948 | 0.362 | 0.312
17 | NCI-H1355 | 0.345 | 0.366 | 0.37 | 0.379 | 0.351 | 0.433 | 0.407 | 0.477 | 0.481 | 0.499 | 0.672 | 0.701 | 0.655 | 0.675 | 0.718 | 0.848 | 0.761 | 0.733 | 0.354 | 0.257
18 | H3255 |  | 0.607 | 0.583 | 0.6 | 0.925 | 0.303 | 0.377 | 0.379 | 0.321 | 0.38 | 0.887 | 0.811 | 0.939 | 0.876 | 0.963 | 1.13 | 0.919 | 0.967 | 0.626 | 0.416
19 | NCI-H1993 | 0.595 | 0.602 | 0.575 | 0.617 | 0.594 | 0.472 | 0.426 | 0.546 | 0.56 | 0.478 | 0.842 | 0.795 | 0.716 | 0.911 | 0.861 | 0.674 | 0.686 | 0.734 | 0.645 | 0.73
20 | NCI-H1734 | 0.52 | 0.501 | 0.45 | 0.541 | 0.506 | 0.393 | 0.351 | 0.402 | 0.406 | 0.425 | 0.234 | 0.197 | 0.221 | 0.232 | 0.161 | 1.02 | 0.755 | 0.72 | 0.336 | 0.318
21 | HOP-62 | 0.21 | 0.221 | 0.259 | 0.205 | 0.204 | 0.63 | 0.797 | 0.67 | 0.725 | 0.784 | 0.864 | 0.883 | 0.824 | 0.884 | 1 | 1.04 | 0.626 | 0.873 | 0.447 | 0.342
22 | LOU-NH91 | 0.783 | 0.818 | 0.781 | 0.801 | 0.805 | 0.685 | 0.684 | 0.604 | 0.805 | 0.729 | 0.326 | 0.331 | 0.331 | 0.347 | 0.38 | 0.712 | 0.888 | 0.837 | 0.588 | 0.527
23 | PC-14 | 0.2 | 0.261 | 0.272 | 0.192 | 0.258 | 0.519 | 0.328 | 0.573 | 0.482 | 0.668 | 0.135 | 0.215 | 0.135 | 0.145 | 0.132 | 1.04 | 1.02 | 0.945 | 0.644 | 0.407
24 | NCI-H1437 | 0.574 | 0.571 | 0.62 | 0.625 | 0.555 | 0.311 | 0.286 | 0.298 | 0.317 | 0.311 | 1.04 | 1.15 | 1.17 | 1.09 | 1.07 | 1.05 | 0.985 | 0.981 | 0.596 | 0.315
25 | NCI-H460 | 0.481 | 0.525 | 0.461 | 0.584 | 0.521 | 0.448 | 0.534 | 0.48 | 0.482 | 0.551 | 0.0296 | 0.0436 | 0.0262 | 0.0334 | 0.0373 | 0.933 | 0.654 | 0.434 | 0.0937 | 0.0501
26 | NCI-H1666 | 0.69 | 0.667 | 0.752 | 0.659 | 0.694 | 0.56 | 0.599 | 0.587 | 0.557 | 0.483 | 0.974 | 0.952 | 0.931 | 0.987 | 0.997 | 0.939 | 0.865 | 0.776 | 0.506 | 0.42
27 | NCI-H1651 | 0.55 | 0.576 | 0.672 | 0.727 | 0.598 | 0.385 | 0.346 | 0.318 | 0.357 | 0.345 | 0.78 | 0.881 | 0.736 | 0.841 | 0.944 | 1.03 | 0.743 | 0.714 | 0.321 | 0.293
